In patent US8691986B2, “Azetidine and piperidine compounds useful as PDE10 inhibitors” (Amgen Inc., priority 2012, dated 2014) one finds IC50 data, which are given here for 14 compounds.

In experiment [1] the target is human PDE2A1 (Homo sapiens (Human), UniProt O00408). As to the kind of experiment: PDE2A inhibition, PDE IMAP TR-FRET assay. It is filed as biochemical. The settings on record: FAM-cAMP substrate. As to the method: (§1) Purified human PDE2A1 and PDE10A2 enzymes were obtained from BPS Bioscience (San Diego, Calif.). IMAP™ TR-FRET progressive binding system, FAM-cAMP substrate were from Molecular Devices (Sunnyvale, Calif.).
Sequence of human PDE2A1 (O00408 other isoform, or with tags, fused parts or gaps): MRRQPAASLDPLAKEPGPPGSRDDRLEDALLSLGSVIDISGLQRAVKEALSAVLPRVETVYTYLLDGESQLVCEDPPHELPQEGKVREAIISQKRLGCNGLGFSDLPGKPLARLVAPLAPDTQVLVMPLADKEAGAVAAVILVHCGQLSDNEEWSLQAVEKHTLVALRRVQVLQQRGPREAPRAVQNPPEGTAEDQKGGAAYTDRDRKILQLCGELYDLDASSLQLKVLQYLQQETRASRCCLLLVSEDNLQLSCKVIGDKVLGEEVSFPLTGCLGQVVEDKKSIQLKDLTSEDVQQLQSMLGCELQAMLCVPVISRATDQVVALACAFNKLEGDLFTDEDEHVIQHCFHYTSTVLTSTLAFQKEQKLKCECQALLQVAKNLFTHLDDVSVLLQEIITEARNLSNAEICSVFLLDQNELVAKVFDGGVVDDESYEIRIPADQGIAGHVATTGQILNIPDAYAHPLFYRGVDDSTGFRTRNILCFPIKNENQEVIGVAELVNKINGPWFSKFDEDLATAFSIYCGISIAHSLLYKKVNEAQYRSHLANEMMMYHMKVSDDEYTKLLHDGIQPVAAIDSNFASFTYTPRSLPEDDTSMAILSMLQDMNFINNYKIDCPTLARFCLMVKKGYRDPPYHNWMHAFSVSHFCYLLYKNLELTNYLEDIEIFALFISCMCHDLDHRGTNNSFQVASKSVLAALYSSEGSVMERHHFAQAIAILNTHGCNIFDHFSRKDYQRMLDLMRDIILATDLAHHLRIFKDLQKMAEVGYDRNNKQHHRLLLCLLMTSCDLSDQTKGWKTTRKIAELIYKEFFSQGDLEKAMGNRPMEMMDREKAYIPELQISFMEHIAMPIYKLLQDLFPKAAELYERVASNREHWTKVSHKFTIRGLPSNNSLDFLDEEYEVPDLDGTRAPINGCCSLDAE
(§2) The PDE IMAP assay was conducted in a 384-well black Greiner polypropylene plate (Sigma, St. Louis, Mo.). PDE inhibitors were serial diluted in 100% DMSO and dispensed into assay plate at […] per well using Echo® Liquid Handling System from LABCYTE. Ten μL of PDE enzyme in IMAP reaction buffer (10 mM Tris-HCl, pH 7.2, 10 mM MgCl2, 0.05% NaN3, and 0.01% Tween-20) was added into the assay wells. The PDE enzyme concentration used was based on each lot of enzyme activity, to ensure enzyme reaction falls in a linear range under assay condition. 1.4 nM of PDE2 or […] PDE10 were used in the assay system. Enzyme was pre-incubated with inhibitors for 60 minutes at room temperature before addition of 10 uL of substrate addition, which results in 100 nM of FAM-cAMP in the reaction. Enzyme reaction was allowed to proceed at room temperature for 90 min, and the reaction is stopped by 55 μl addition of binding reagent according to manufacturer's recommendation. The mixture is further incubated at room temperature for additional 4 hours, and signal was read on an Envision multimode reader (PerkinElmer). Fluorescence signals were measured at 520 nm and 485 nm. The signal ratio at 520/485 nm corresponded to the generation of reaction product of AMP, and it was used in all data analysis. Values from DMSO-treated wells were normalized to POC=100, and no-enzyme wells were normalized to POC=0. IC50 values were determined by using the Genedata Screener V9.0.1. The curve fitting algorithm used for dose response data analysis in Genedata Screener is a custom implementation of a robust curve-fitting algorithm called ROUT (Robust regression with outlier detection) and uses a four-parameter logistical (4 PL) Hill model.

The target of experiment [2] is human PDE10A2 (Homo sapiens (Human), UniProt Q9Y233). As to the kind of experiment: PDE10A enzyme inhibition, PDE IMAP TR-FRET assay. It is filed as biochemical. The following applies: FAM-cAMP substrate. The procedure: An IMAP TR-FRET assay was used to analyze the enzyme activity (Molecular Devices Corp., Sunnyvale Calif.). 10 μL of serial diluted PDE10A (BPS Bioscience, San Diego, Calif.) or tissue homogenate was incubated with equal volumes of diluted fluorescein labeled cAMP or cGMP for 90 min in 384-well Polypropylene assay plates (Greiner, Monroe, N.C.) at room temperature. After incubation, the reaction was stopped by adding 55 μL of diluted binding reagents and was incubated for 4 hours to overnight at room temperature. The plates were read on an Envision (Perkin Elmer, Waltham, Mass.) for time resolved fluorescence resonance energy transfer. The data were analyzed with Genedata Screener® (Lexington, Mass.).
Sequence of human PDE10A2 (Q9Y233 267-1055): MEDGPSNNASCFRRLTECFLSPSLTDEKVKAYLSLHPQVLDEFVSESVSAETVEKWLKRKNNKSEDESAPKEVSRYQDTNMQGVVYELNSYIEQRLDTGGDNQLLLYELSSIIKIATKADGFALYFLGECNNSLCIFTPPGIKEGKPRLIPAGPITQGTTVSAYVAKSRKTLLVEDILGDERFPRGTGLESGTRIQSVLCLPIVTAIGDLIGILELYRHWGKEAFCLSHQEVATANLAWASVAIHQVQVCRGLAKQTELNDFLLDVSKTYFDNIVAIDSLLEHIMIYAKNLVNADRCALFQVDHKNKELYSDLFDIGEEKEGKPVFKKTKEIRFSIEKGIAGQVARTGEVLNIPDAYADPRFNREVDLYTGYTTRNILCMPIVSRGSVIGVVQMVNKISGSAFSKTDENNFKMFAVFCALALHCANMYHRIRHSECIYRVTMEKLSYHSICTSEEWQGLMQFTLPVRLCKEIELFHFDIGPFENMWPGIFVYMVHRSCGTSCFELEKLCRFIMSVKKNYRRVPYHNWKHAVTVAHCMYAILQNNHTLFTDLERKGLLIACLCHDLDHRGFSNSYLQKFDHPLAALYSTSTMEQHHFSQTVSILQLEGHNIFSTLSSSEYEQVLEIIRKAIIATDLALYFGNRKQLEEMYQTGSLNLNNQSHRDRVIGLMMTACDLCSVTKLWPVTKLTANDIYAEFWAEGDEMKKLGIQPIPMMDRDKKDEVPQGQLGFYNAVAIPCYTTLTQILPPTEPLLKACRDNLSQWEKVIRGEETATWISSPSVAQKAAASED
To check the inhibition profile, 0.2 μL of serial diluted compounds were incubated with 10 μL of diluted PDE10 enzyme (BPS Bioscience, San Diego, Calif.) or tissue homogenate in a 384-well Polypropylene assay plate (Greiner, Monroe, N.C.) for 60 min at room temperature. After incubation, 10 μL of diluted fluorescein labeled cAMP or cGMP substrate was added and incubated for 90 min at room temperature. The reaction was stopped by adding 55 μL of diluted binding reagents and plates were read on an Envision (Perkin Elmer, Waltham, Mass.) for time resolved fluorescence resonance energy transfer. The data were analyzed with Genedata Screener® (Lexington, Mass.).
as §1
as §2, with “Enzyme was pre-incubated with inhibitors for 60 minutes at room temperature before addition of 10 uL of substrate addition, which results in 100 nM of FAM-cAMP in the reaction.” left out
On the technique in general: In TR-FRET formats the signal depends on donor and acceptor labels being close together.

pIC50: −log10 of the molar value.

What is called pIC50 is −log10 of the IC50, conventionally taken in molar units.

Take `CNC(=O)c1ccc(-c2nccnc2C2CCN(c3ccc4ccc(Cl)cc4n3)CC2)cc1F` [Example 1, 4-(3-(1-(7-Chloroquinolin-2-Yl)Piperidin-4-Yl)Pyrazin-2-Yl)-2-Fluoro-N-Methylbenzamide]: the negative-log IC50 (pIC50) in experiment [1] is 5.00; in experiment [2], 7.54.
In the same order, the values of `CNC(=O)c1ccc(-c2nccnc2C2CCN(c3ccc4ccc(F)cc4n3)CC2)cc1F` [Example 2, 2-Fluoro-4-(3-(1-(7-Fluoroquinolin-2-Yl)Piperidin-4-Yl) Pyrazin-2-Yl)-N-Methylbenzamide] are 5.00 and 8.20.
As for `CNC(=O)c1ccc(-c2nccnc2C2CCN(c3ccc4ccccc4n3)CC2)cc1F` [Example 3, 2-Fluoro-N-Methyl-4-(3-(1-(Quinolin-2-Yl)Piperidin-4-Yl)Pyrazin-2-Yl)Benzamide], the figures for the negative logarithm of the IC50 (pIC50) in experiment [1] and in experiment [2] were 5.00 and 8.51, respectively.
For `CNC(=O)c1ccc(-c2nccnc2C2CCN(c3ccc4cc(F)ccc4n3)CC2)cc1F` [Example 4, 2-Fluoro-4-(3-(1-(6-Fluoroquinolin-2-Yl)Piperidin-4-Yl)Pyrazin-2-Yl)-N-Methylbenzamide], in that order: 5.00 and 8.55.
Regarding `CNC(=O)c1ccc(-c2nccnc2C2CCN(c3ccc4cccc(F)c4n3)CC2)cc1F` [Example 5, 2-Fluoro-4-(3-(1-(8-Fluoroquinolin-2-Yl)Piperidin-4-Yl)Pyrazin-2-Yl)-N-Methylbenzamide], the pIC50 in experiment [1] was 5.00; in experiment [2], 8.12.
`CNC(=O)c1ccc(-c2nccnc2C2CN(c3ncc4ccccc4n3)C2)cc1F` [Example 6, 2-Fluoro-N-Methyl-4-(3-(1-(Quinazolin-2-Yl)Azetidin-3-Yl)Pyrazin-2-Yl)Benzamide]: the pIC50 in experiment [1] is 5.00; in experiment [2], 8.12.
Take `CNC(=O)c1ccc(-c2nccnc2C2CN(c3ccc4ccccc4n3)C2)cc1F` [Example 7, 2-Fluoro-N-Methyl-4-(3-(1-(Quinolin-2-Yl)Azetidin-3-Yl) Pyrazin-2-Yl)Benzamide]: the pIC50 in experiment [1] was 5.00; in experiment [2], 8.40.
In the same order, the values of `CNC(=O)c1ccc(-c2nccnc2C2CN(c3ccc4ccc(F)cc4n3)C2)cc1F` [Example 8, 2-Fluoro-4-(3-(1-(7-Fluoroquinolin-2-Yl)Azetidin-3-Yl) Pyrazin-2-Yl)-N-Methylbenzamide] are 5.00 and 9.30.
With `CNC(=O)c1ccc(-c2nccnc2C2CN(c3ncc4ccc(F)cc4n3)C2)cc1F` [Example 9, 2-Fluoro-4-(3-(1-(7-Fluoroquinazolin-2-Yl)Azetidin-3-Yl)Pyrazin-2-Yl)-N-Methylbenzamide], the pIC50 in experiment [1] is 5.00; in experiment [2], 7.51.
On to `CNC(=O)c1ccc(-c2nccnc2C2CN(c3ncc4ccc(Cl)cc4n3)C2)cc1F` [Example 10, 4-(3-(1-(7-Chloroquinazolin-2-Yl)Azetidin-3-Yl)Pyrazin-2-Yl)-2-Fluoro-N-Methylbenzamide], for which the negative-log IC50 (pIC50) was 5.13 in experiment [1] and 8.23 in experiment [2].
As for `CNC(=O)c1ccc(-c2nccnc2C2CN(c3ncc4cc(F)ccc4n3)C2)cc1F` [Example 11, 2-Fluoro-4-(3-(1-(6-Fluoroquinazolin-2-Yl)Azetidin-3-Yl)Pyrazin-2-Yl)-N-Methylbenzamide], the values for the pIC50 in experiment [1] and in experiment [2] were 5.00 and 7.78, respectively.
In the case of `CNC(=O)c1ccc(-c2nccnc2C2CN(c3ncc4cc(F)c(Cl)cc4n3)C2)cc1F` [Example 12, 4-(3-(1-(7-Chloro-6-Fluoroquinazolin-2-Yl)Azetidin-3-Yl)Pyrazin-2-Yl)-2-Fluoro-N-Methylbenzamide], the negative-log IC50 (pIC50) was 5.00 in experiment [1] and 8.41 in experiment [2].
For `CNC(=O)c1ccc(-c2nccnc2C2CN(c3ccc4cc(F)ccc4n3)C2)cc1F` [Example 13, 2-Fluoro-4-(3-(1-(6-Fluoroquinolin-2-Yl)Azetidin-3-Yl) Pyrazin-2-yl)-N-Methylbenzamide], in that order: 5.00 and 8.77.
In the same order, the values of `CNC(=O)c1ccc(-c2nccnc2C2CN(c3ccc4ncc(Cl)cc4n3)C2)cc1F` [Example 14, 4-(3-(1-(7-Chloro-1,5-Naphthyridin-2-Yl)Azetidin-3-Yl)Pyrazin-2-Yl)-2-Fluoro-N-Methylbenzamide] are 5.00 and 8.44.
